A short description of series [1]: Metabolic stability in human liver microsomes. The class given is in vitro ADME. The following applies: for microsomal CLint / half-life: human, liver microsomes; for half-life: read-out: t1/2, min.
Another series has as its system Caco-2. In words: Caco-2 permeability (A-B and B-A). It is filed as in vitro ADME. (In general: Caco-2 monolayers are a common model of the intestinal barrier.)
The target in another series is T1, Brain/CB1 (Mus musculus, UniProt P47746).
T1 construct: from tissue; host or cells: mouse brain membranes
In words: Functional GTPγS binding, Brain/CB1. It is filed as biochemical.

The next series concerns the target CB1 (UniProt P21554). In words: CB1 radioligand binding assay. To be noted: read-out: Ki (CB1). On the set-up: species or system human. A digest of the protocol:
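Radioligand binding to human CB1 stably expressed in CHO cells and to mouse brain membrane CB1 gave binding constants. For selected compounds, antagonism of CP55940-induced CB1 activation was measured in MPXNomad-CB1 HEK293 cells via cAMPNomad (cAMP) and ArresNomad (β-arrestin) fluorescent biosensors.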

Series [2] in a line: Metabolic stability in mouse liver microsomes. The class given is in vitro ADME. To be noted: for microsomal CLint / half-life: mouse, liver microsomes; for half-life: read-out: t1/2, min. (In general: Microsomes from liver hold many membrane-bound enzymes, among them those of drug oxidation.)
The nature of series [3]: Caco-2 permeability (A-B and B-A). It is filed as in vitro ADME. The following applies: human; for efflux ratio: Caco-2, quotient of Papp(BA) to Papp(AB).
Series [4] concerns the target T2, Cannabinoid receptor 1 (Homo sapiens, UniProt P21554).
T2 construct: expressed in transfected cells; host or cells: MPXNomad-CB1 HEK293 cell line
In words: β-Arrestin mobilization, green ArresNomad biosensor, MPXNomad-CB1 HEK293 cell line, antagonism of CP55940. The class given is cell-based. The following applies: for reduction in the fluorescence intensity, arrestin assay: CP55940 3 μM. On the procedure:
(§1) A number of these amino carboxamido adducts with a variety of side chains have been synthesized. This led to interesting CB1R binding affinities of the synthesized molecules. Several of these racemic (glycine, valine) or diastereomeric molecules have binding affinities in single digit nanomolar range (2 nM to 10 nM) obtained from radioligand binding assay. Furthermore, we investigated the antagonist effect of a few compounds to analyze their capability to modulate CBIR induced by CP55940 in the MPXNomad-CB1 HEK293 cell line. This cell line has been validated measuring cAMP signaling and ß-Arrestin mobilization analyzing the fluorescence intensity of the red cAMPNomad and the green ArresNomad biosensors.
(§2) The MPXNomad-CB1 cell line was used to test substances or examine their ability to interact with Cannabinoid receptor 1 where an agonist that binds to CB1 activates a G protein, which in turn causes CAMP to be released and a cellular response that is then internalized by ß-Arrestin. The assay determined the efficacy to block the activation of the CB1 receptor brought on by CP55940 in the MPXNomad-CB1 HEK293 cell line. AM251 1 μM and 3 µM was utilized as the positive control, CP55940 3 μM was used as the negative control, and vehicle (DMSO) served as the zero control. Treatment with CP55940 3 μM produced an increment in the fluorescence intensity of the red cAMPNomad and the green ArresNomad biosensors. […] Instead, the reduction was a 50%, 34% and 22% at 1 μM, 100 nM and 10 nM, respectively in the arrestin assay.

The target in series [5] is T2, Cannabinoid receptor 1. The experiment in a line: cAMP signaling, red cAMPNomad biosensor, MPXNomad-CB1 HEK293 cell line, antagonism of CP55940. The class given is cell-based. To be noted: for reduction in the fluorescence intensity, cAMP assay: CP55940 3 μM. As to the method:
as §1, §2
(In general: cAMP levels reflect the balance of adenylyl cyclase and phosphodiesterase activity.)

The target in another series is iNOS (Mus musculus, UniProt P29477). In words: Inducible NOS biochemical assay. The source says: Biochemical assay results are presented as the percent inhibition of specific binding or activity (iNOS, CAMP, beta arrestin).
Where [6] appears, read: Caco-2, mean, read-out: Papp (AB), 10^−6 cm/s, Mean.
The mark [7] stands for this setting: Caco-2, mean, read-out: Papp (BA), 10^−6 cm/s, Mean.
[8] abbreviates: Caco-2, replicate 1, read-out: Papp (AB), 10^−6 cm/s, 1.
Setting [9] is: Caco-2, replicate 1, read-out: Papp (BA), 10^−6 cm/s, 1.
Where [10] appears, read: Caco-2, replicate 2, read-out: Papp (AB), 10^−6 cm/s, 2.
Setting [11] is: Caco-2, replicate 2, read-out: Papp (BA), 10^−6 cm/s, 2.
[12] abbreviates: vs CP55940, MPXNomad-CB1 HEK293.

Read-outs that look alike come from different tables or passages of the source.

T1 sequence (P47746 whole entry): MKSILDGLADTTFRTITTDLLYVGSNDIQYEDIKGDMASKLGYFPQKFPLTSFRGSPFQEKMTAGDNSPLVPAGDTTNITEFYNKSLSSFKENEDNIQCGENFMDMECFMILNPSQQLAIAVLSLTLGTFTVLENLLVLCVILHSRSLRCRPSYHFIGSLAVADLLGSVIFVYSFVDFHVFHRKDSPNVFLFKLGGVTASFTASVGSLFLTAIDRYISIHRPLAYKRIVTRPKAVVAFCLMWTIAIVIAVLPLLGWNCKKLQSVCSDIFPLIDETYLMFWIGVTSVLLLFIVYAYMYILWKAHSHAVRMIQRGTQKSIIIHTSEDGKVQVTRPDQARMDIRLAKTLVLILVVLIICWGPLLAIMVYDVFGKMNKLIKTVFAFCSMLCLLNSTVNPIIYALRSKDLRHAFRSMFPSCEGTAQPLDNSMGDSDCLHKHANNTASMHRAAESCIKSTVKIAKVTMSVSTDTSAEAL
T2 sequence (P21554 whole entry): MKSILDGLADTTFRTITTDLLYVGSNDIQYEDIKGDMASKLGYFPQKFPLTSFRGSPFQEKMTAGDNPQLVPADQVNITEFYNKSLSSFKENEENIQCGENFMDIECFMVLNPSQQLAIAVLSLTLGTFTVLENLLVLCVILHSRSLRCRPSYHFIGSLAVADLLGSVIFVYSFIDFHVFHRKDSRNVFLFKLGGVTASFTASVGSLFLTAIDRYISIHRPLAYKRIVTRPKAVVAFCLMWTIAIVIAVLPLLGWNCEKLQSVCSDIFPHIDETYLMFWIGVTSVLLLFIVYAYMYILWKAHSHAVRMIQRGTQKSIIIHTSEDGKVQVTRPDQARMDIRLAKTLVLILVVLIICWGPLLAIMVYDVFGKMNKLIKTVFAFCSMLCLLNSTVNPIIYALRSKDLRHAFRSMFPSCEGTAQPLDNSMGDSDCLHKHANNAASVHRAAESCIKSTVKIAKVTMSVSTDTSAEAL

What is called microsomal CLint is a measure of how fast metabolising enzymes remove a compound, apart from limits set by blood flow. Low values mean slow turnover, high ones rapid turnover. One may read the efflux ratio as a quotient of directional permeabilities that is used to spot active efflux. Broadly, the IC50 is the point on the concentration scale where inhibition reaches its midpoint. Low values mean inhibition by little substance, high ones a need for much substance. As usually defined, the Ki is the equilibrium dissociation constant of an inhibitor or competing ligand from its target. Regarding `CC(C)C(N/C(=N/S(=O)(=O)c1ccc(C(F)(F)F)cc1)N1CCC(c2ccccc2)C(c2ccc(Cl)cc2)=N1)C(N)=O` (single isomer, unassigned) [Compound 29a, (Z)-2-(3-(4-chlorophenyl)-4-phenyl-N′-((4-(trifluoromethyl)phenyl)sulfonyl)-1,4,5,6-tetrahydropyridazine-1-carboximidamido)-3-methylbutanamide], in series [1], the intrinsic metabolic clearance (microsomal CLint) came out at 23 µL/min/mg and the half-life was 1.22 h. Moreover, in the series on Caco-2 (mean), the “Papp (AB), 10^−6 cm/s, Mean” value is reported as 1.4 10^−6 cm/s and the “Papp (BA), 10^−6 cm/s, Mean” value is given as 0.5 10^−6 cm/s. Besides, the efflux ratio in the series on Caco-2 (quotient of Papp(BA) to Papp(AB)) was 0.4. In the series with Caco-2 (replicate 1), the “Papp (AB), 10^−6 cm/s, 1” value is given as 1.4 10^−6 cm/s and the “Papp (BA), 10^−6 cm/s, 1” value is on record as 0.5 10^−6 cm/s. Besides, in the series on Caco-2 (replicate 2), the “Papp (AB), 10^−6 cm/s, 2” value is listed as 1.4 10^−6 cm/s and the “Papp (BA), 10^−6 cm/s, 2” value is recorded as 0.5 10^−6 cm/s. On Brain/CB1, this compound registered an IC50 of 0.389 µM. Besides, the Ki on CB1 was found to be 0.0132 µM. Also, in series [2], the “Clint” value came out at 236 µL/min/mg and the “t1/2, min” value amounted to 0.118 h.
On to `CC(C)C(N/C(=N/S(=O)(=O)c1ccc(C(F)(F)F)cc1)N1CCC(c2ccccc2)C(c2ccc(Cl)cc2)=N1)C(N)=O` (single isomer, unassigned) [Compound 29b, (Z)-2-(3-(4-chlorophenyl)-4-phenyl-N′-((4-(trifluoromethyl)phenyl)sulfonyl)-1,4,5,6-tetrahydropyridazine-1-carboximidamido)-3-methylbutanamide], for which the results for the “Clint” value in series [1] and in series [2] were 15 µL/min/mg and 883 µL/min/mg, respectively. For the same compound, the “t1/2, min” value worked out at 1.91 h in series [1] and 0.0317 h in series [2]. The Papp A→B was 0.9 ×10⁻⁶ cm/s in [3] (setting [6]), 0.9 ×10⁻⁶ cm/s in series [3] (setting [8]) and 1 ×10⁻⁶ cm/s in series [3] (setting [10]). The Papp B→A worked out at 0.3 ×10⁻⁶ cm/s in [3] (setting [7]), 0.3 ×10⁻⁶ cm/s in series [3] (setting [9]) and 0.4 ×10⁻⁶ cm/s in series [3] (setting [11]). In addition, in series [3], the efflux ratio was found to be 0.4. On Brain/CB1, this compound yielded a half-inhibitory concentration (IC50) of 0.01 µM. Moreover, the Ki on CB1 is 0.0027 µM.
Turning to `CC(C)C(N/C(=N/S(=O)(=O)c1ccc(C(F)(F)F)cc1)N1CCC(c2ccccc2)C(c2ccc(Cl)cc2)=N1)C(N)=O` (stereo not shown) [2-(3-(4-chlorophenyl)-4-phenyl-N′-((4-(trifluoromethyl)phenyl)sulfonyl)-1,4,5,6-tetrahydropyridazine-1-carboximidamido)-3-methylbutanamide], the half-maximal inhibitory concentration (IC50) was determined as 0.000227 µM at Cannabinoid receptor 1 [4] (setting [12]) and 0.000804 µM against Cannabinoid receptor 1 [5] (setting [12]).
With `C/C(N)=N\C(=N\S(=O)(=O)c1ccc(C(F)(F)F)cc1)N1CCC(c2ccccc2)C(c2ccc(Cl)cc2)=N1` (stereo not shown) [Compound 10b, (Z)—N—((E)-1-aminoethylidene)-3-(4-chlorophenyl)-4-phenyl-N′-((4-(trifluoromethyl)phenyl)sulfonyl)-5,6-dihydropyridazine-1 (4H)-carboximidamide], the microsomal CLint was 2 µL/min/mg in [1] and 34 µL/min/mg in series [2]. For the same compound, the half-life in [1] was 12.7 h; in series [2], 0.813 h. Besides, the Papp A→B is 2.5 ×10⁻⁶ cm/s in [3] (setting [6]), 2.4 ×10⁻⁶ cm/s in [3] (setting [8]) and 2.5 ×10⁻⁶ cm/s in series [3] (setting [10]). Also, the Papp B→A in series [3] (setting [7]) turned out to be 1.9 ×10⁻⁶ cm/s; in series [3] (setting [9]) it was 1.9 ×10⁻⁶ cm/s; in [3] (setting [11]), 1.8 ×10⁻⁶ cm/s. Moreover, in series [3], the efflux ratio came to 0.8. At Brain/CB1, this compound yielded an IC50 of 0.093 µM. Moreover, the “iNOS inhibition % Response” value on iNOS stood at 64%. Further, the Ki at CB1 was determined as 0.015 µM. The “reduction in the fluorescence intensity, arrestin assay” value on Cannabinoid receptor 1 [4] (10 nM) was found to be 22%; at Cannabinoid receptor 1 [4] (100 nM), 34%; on Cannabinoid receptor 1 [4] (1 μM), 50%. Further, the “reduction in the fluorescence intensity, cAMP assay” value was roughly 19% on Cannabinoid receptor 1 [5] (10 nM), roughly 29% at Cannabinoid receptor 1 [5] (100 nM) and roughly 47% on Cannabinoid receptor 1 [5] (1 μM).
On to `CC(C)(C)/C(N)=N/C(=N/S(=O)(=O)c1ccc(C(F)(F)F)cc1)N1CCC(c2ccccc2)C(c2ccc(Cl)cc2)=N1` (stereo not shown) [Compound 10o, (Z)—N—((Z)-1-amino-2,2-dimethylpropylidene)-3-(4-chlorophenyl)-4-phenyl-N′-((4-(trifluoromethyl)phenyl)sulfonyl)-5,6-dihydropyridazine-1 (4H)-carboximidamide], for which the “t1/2, min” value in series [1] was 1.07 h; in series [2], 1.23 h. Also, the results for the intrinsic clearance (microsomal CLint) in [1] and in series [2] were 26 µL/min/mg and 23 µL/min/mg, respectively. Besides, the half-life in series [1] amounted to 1.07 h; in series [2], 1.13 h. The values for the Papp A→B in series [3] (setting [6]), in series [3] (setting [8]) and in series [3] (setting [10]) were 2.2 ×10⁻⁶ cm/s, 1.9 ×10⁻⁶ cm/s and 2.4 ×10⁻⁶ cm/s, respectively. In addition, the Papp B→A in [3] (setting [7]), in series [3] (setting [9]) and in series [3] (setting [11]) was 0.5 ×10⁻⁶ cm/s in each case. Besides, in [3], the efflux ratio worked out at 0.2. Besides, the concentration for half-maximal inhibition (IC50) at Brain/CB1 was determined as 0.018 µM. The “iNOS inhibition % Response” value on iNOS worked out at 66%. In addition, the inhibition constant (Ki) at CB1 came out at 0.01 µM.
As for `N/C(=N\C(=N\S(=O)(=O)c1ccc(C(F)(F)F)cc1)N1CCC(c2ccccc2)C(c2ccc(Cl)cc2)=N1)c1ccc(F)cc1F` (stereo not shown) [Compound 10p, (Z)—N—((Z)-amino (2,4-difluorophenyl)methylene)-3-(4-chlorophenyl)-4-phenyl-N′-((4-(trifluoromethyl)phenyl)sulfonyl)-5,6-dihydropyridazine-1 (4H)-carboximidamide], the results for the microsomal CLint in [1] and in series [2] were 6 µL/min/mg and 25 µL/min/mg, respectively. Besides, the half-life in series [1] amounted to 4.8 h; in series [2], 1.3 h. The Papp A→B in [3] (setting [6]) stood at 1.4 ×10⁻⁶ cm/s; in series [3] (setting [8]), 1.5 ×10⁻⁶ cm/s; in [3] (setting [10]), 1.3 ×10⁻⁶ cm/s. Further, the values for the Papp B→A in [3] (setting [7]), in series [3] (setting [9]) and in [3] (setting [11]) were 0.6 ×10⁻⁶ cm/s, 0.6 ×10⁻⁶ cm/s and 0.5 ×10⁻⁶ cm/s, respectively. In addition, in [3], the efflux ratio stood at 0.4. In addition, the IC50 at Brain/CB1 is 0.013 µM. Moreover, the “iNOS inhibition % Response” value at iNOS was determined as 36%. Further, on CB1, the inhibitory constant (Ki) was determined as 0.0096 µM. In addition, in series [2], the “t1/2, min” value was 1.13 h.
